{"source": "paper PMC8000760", "about": "“Potential Effect of Pseudevernia furfuracea (L.) Zopf Extract and Metabolite Physodic Acid on Tumour Microenvironment Modulation in MCF-10A Cells” (Biomolecules, 2021)", "key": {"[1]": {"tested_on": "chorioallantoic membrane (CAM) of fertilised quail eggs", "experiment": "Ex ovo chorioallantoic membrane (CAM) assay", "assay_type": "in vivo, Coturnix coturnix japonica", "procedure": "Fertilised quail eggs (Coturnix coturnix japonica; 20 specimens) were obtained from the certified farm (Mala Ida, Slovakia) and incubated horizontally in a forced draft constant humidity incubator at 38.2 ± 0.5 °C and 58% relative humidity. After 56 h, the eggs were sterilised by wiping the surface lightly with 70% ethanol and allowed to dry. An incision was made in the middle ventral part of the shell, using sterile scissors, and the embryos were deposited in six-well tissue culture dishes (Sigma-Aldrich), which were then returned to the humidified incubator for an additional 4 days, until the start of the experiments. At day 7 (96 h after day 3), a sterilised silicone ring (10 mm inner diameter) was laid on CAM surface for the deposition of testing solution. […] At least 10 eggs were used in every experimental group. The photographs of CAM blood vessels’ formation inside of rings were obtained using a stereomicroscope Olympus SZ61 (Tokyo, Japan) and digital camera PROMICRA 3.2 (Prague, Czech Republic). Subsequently, photographs were pre-processed using QuickPHOTO MICRO microscope software (Promicra; Prague, Czech Republic). Representative images were then analysed using Wimasis Image Analysis automatic software to quantify the angiogenesis."}, "[2]": {"tested_on": "BJ-5ta", "experiment": "MTS cell viability assay", "assay_type": "cell-based", "settings": "72 h", "procedure": "(§1) Briefly, MCF-10A and BJ-5ta were seeded in 96-well culture plates, and after 24 h incubation, treated with various ranges of concentrations of tested compounds (10–100 μg/mL) for 72 h. At the same time, HUVECs were seeded in a gelatine-coated 96-well plate and treated with the same aliquots of indicated compounds in the presence or absence of VEGF (Vascular endothelial growth factor) (25 ng/mL) for 48 h. Cell viability was evaluated by measuring the absorbance at 490 nm using the automated CytationTM 3 Cell Imaging Multi-Mode Reader (Biotek, Winooski, VT, USA). Three independent experiments were performed at different intervals."}, "[3]": {"tested_on": "Slug in BJ-5ta", "experiment": "Western blot of Slug in TGF-β-stimulated fibroblasts", "assay_type": "cell-based", "settings": "72 h treatment", "procedure": "(§2) The MCF-10A and BJ-5ta cells were seeded and cultivated for 24 h in a complete medium. One day after seeding, 30 ng/mL of TGF-β was added and cultivated for 7 days (d). TGF-β was added to induce epithelial–mesenchymal transition in tested cell lines. Lichen extract P. furfuracea (L.) Zopf and its metabolite physodic acid were added at time 0 h and then incubated for 24, 48 and 72 h for various analyses, as described in Figure 1.\n(§3) Proteins isolated from MCF-10A and BJ-5ta cell lysates were determined by the Pierce® BCA Protein Assay Kit (Thermo Scientific, Rockford, IL, United States), using bovine serum albumin (BSA) as the standard, and measured by an automated Cytation™ 3 Cell Imaging Multi-Mode Reader (Biotek) at a wavelength of 570 nm. Proteins were separated on SDS-PAA gel (12%) at 100 V for 2 h and then transferred to a polyvinylidene difluoride (PVDF) membrane using the iBlot dry blotting system (Thermo Scientific, Rockford, IL, United States). […] After incubation, the membrane was again washed in TBS-Tween (3 × 5 min), and the expression of the protein was detected using a chemiluminescent ECL substrate (Thermo Fisher Scientific) and MF-ChemiBIS 2.0 Imaging System (DNR BIO-Imaging Systems, Jerusalem, Israel). The detected band was then analysed densitometrically using the Image Studio Lite software (LI-COR Biosciences, Lincoln, NE, USA). […]"}, "[4]": {"tested_on": "fibronectin in TGF-β-stimulated MCF-10A cells", "experiment": "Fibronectin expression, Western blot", "assay_type": "cell-based, human", "settings": "IC10 and IC50, dose-dependent manner", "procedure": "as §2, §3"}, "[5]": {"tested_on": "HUVECs", "experiment": "MTS cell viability assay", "assay_type": "cell-based, human", "settings": "48 h", "procedure": "as §1"}, "[6]": {"tested_on": "MCF-10A", "experiment": "MTS cell viability assay", "assay_type": "cell-based, human", "settings": "72 h", "procedure": "as §1"}, "[7]": {"tested_on": "MCF-10A cells", "experiment": "Flow cytometry cell cycle phase distribution", "assay_type": "cell-based, human", "procedure": "as §2\nThe MCF-10A cells (1 × 10^4/well) were seeded in Petri dishes and stimulated with […] TGF-β for 7 days. […] After detaching, using Trypsin/EDTA, cells were harvested and pelleted by centrifugation at 1200 rpm for 5 min. Pellet was re-suspended in PBS and divided for a particular analysis. Cells were stained prior to analyses with E-Cadherin Mouse mAb (Alexa Fluor 488 conjugate) or N-cadherin Rabbit mAb (Alexa Fluor 647 conjugate) (Cell Signalling) for 15 min at RT in the dark. For the cell cycle analyses, cells were re-suspended in staining solution (final concentration 0.1% Triton X-100, 0.5 mg/mL ribonuclease A and 0.025 mg/mL propidium iodide (PI)), and incubated in the dark at RT for 30 min. All samples were analysed using a FACS Calibur flow cytometer (Becton Dickinson, San Jose, CA, USA). The IgG isotype control checking was performed for every used antibody."}, "[8]": {"settings": "VEGF-stimulated (25 ng/mL), IC10, 72 h, compared to VEGF alone"}, "[9]": {"settings": "24 h, IC10, in the presence of 30 ng/mL TGF-β"}, "[10]": {"settings": "24 h, treatment alone (IC10 of PSE/Phy, or TGF-β 30 ng/mL)"}, "[11]": {"settings": "48 h, IC10, in the presence of 30 ng/mL TGF-β"}, "[12]": {"settings": "48 h, treatment alone (IC10 of PSE/Phy, or TGF-β 30 ng/mL)"}, "[13]": {"settings": "72 h, IC10, in the presence of 30 ng/mL TGF-β"}, "[14]": {"settings": "72 h, treatment alone (IC10 of PSE/Phy, or TGF-β 30 ng/mL)"}}}
{"smiles": "CCCCCC(=O)Cc1cc(O)cc2c1C(=O)Oc1cc(O)c(C(=O)O)c(CCCCC)c1O2", "note": "[Phy, physodic acid]", "values": [{"measurement": "total branching points", "setting": "[1]; [8]", "value": "significant decrease"}, {"measurement": "total vascular network length", "setting": "[1]; [8]", "value": "significant decrease"}, {"measurement": "vascular density", "setting": "[1]; [8]", "value": "significant decrease"}, {"measurement": "total branching points", "setting": "[1]; absence of VEGF", "value": "not significantly affected"}, {"measurement": "vessel density", "setting": "[1]; non-stimulated group (absence of VEGF)", "value": "significant change"}, {"measurement": "IC10", "setting": "[2]", "value": "46.35 ± 0.39", "unit": "µM"}, {"measurement": "IC50", "setting": "[2]", "value": "83.2 ± 1.02", "unit": "µM"}, {"measurement": "Slug protein", "setting": "[3]", "value": "downregulation"}, {"measurement": "levels of fibronectin, Western blot", "setting": "[4]", "value": "downregulated"}, {"measurement": "VEGF-induced cell growth", "setting": "[5]; HUVECs with VEGF 25 ng/mL", "value": "significantly inhibited"}, {"measurement": "cell growth of non-stimulated HUVECs", "setting": "[5]; HUVECs without VEGF", "value": "no significant differences"}, {"measurement": "IC10", "setting": "[5]; HUVECs", "value": "60.62 ± 3.30", "unit": "µM"}, {"measurement": "IC50", "setting": "[5]; Homo sapiens, HUVEC, HUVECs", "value": "92.8 ± 3.62", "unit": "µM"}, {"measurement": "IC10", "setting": "[6]", "value": "59.25 ± 1.36", "unit": "µM"}, {"measurement": "IC50", "setting": "[6]; Homo sapiens", "value": "79.9 ± 0.93", "unit": "µM"}, {"measurement": "G1 cell cycle phase distribution", "setting": "[7]; [9]", "value": "73.45 ± 0.69"}, {"measurement": "G2/M cell cycle phase distribution", "setting": "[7]; [9]", "value": "13.25 ± 2.08"}, {"measurement": "S cell cycle phase distribution", "setting": "[7]; [9]", "value": "12.20 ± 2.69"}, {"measurement": "Sub G0 cell cycle phase distribution", "setting": "[7]; [9]", "value": "1.10 ± 0.07"}, {"measurement": "G1 cell cycle phase distribution", "setting": "[7]; [10]", "value": "73.25 ± 0.37"}, {"measurement": "G2/M cell cycle phase distribution", "setting": "[7]; [10]", "value": "13.85 ± 0.61"}, {"measurement": "S cell cycle phase distribution", "setting": "[7]; [10]", "value": "12.05 ± 0.86"}, {"measurement": "Sub G0 cell cycle phase distribution", "setting": "[7]; [10]", "value": "0.86 ± 0.12"}, {"measurement": "G1 cell cycle phase distribution", "setting": "[7]; [11]", "value": "89.05 ± 1.18^Δ"}, {"measurement": "G2/M cell cycle phase distribution", "setting": "[7]; [11]", "value": "5.78 ± 1.16"}, {"measurement": "S cell cycle phase distribution", "setting": "[7]; [11]", "value": "3.36 ± 0.27"}, {"measurement": "Sub G0 cell cycle phase distribution", "setting": "[7]; [11]", "value": "1.82 ± 0.24"}, {"measurement": "G1 cell cycle phase distribution", "setting": "[7]; [12]", "value": "88.15 ± 0.53"}, {"measurement": "G2/M cell cycle phase distribution", "setting": "[7]; [12]", "value": "5.06 ± 1.00"}, {"measurement": "S cell cycle phase distribution", "setting": "[7]; [12]", "value": "4.23 ± 0.48"}, {"measurement": "Sub G0 cell cycle phase distribution", "setting": "[7]; [12]", "value": "2.54 ± 0.04"}, {"measurement": "G1 cell cycle phase distribution", "setting": "[7]; [13]", "value": "89.75 ± 0.86^Δ"}, {"measurement": "G2/M cell cycle phase distribution", "setting": "[7]; [13]", "value": "4.34 ± 1.27^Δ"}, {"measurement": "S cell cycle phase distribution", "setting": "[7]; [13]", "value": "3.14 ± 0.52"}, {"measurement": "Sub G0 cell cycle phase distribution", "setting": "[7]; [13]", "value": "2.77 ± 0.94"}, {"measurement": "G1 cell cycle phase distribution", "setting": "[7]; [14]", "value": "88.50 ± 1.14"}, {"measurement": "G2/M cell cycle phase distribution", "setting": "[7]; [14]", "value": "3.99 ± 0.80"}, {"measurement": "S cell cycle phase distribution", "setting": "[7]; [14]", "value": "5.45 ± 2.26"}, {"measurement": "Sub G0 cell cycle phase distribution", "setting": "[7]; [14]", "value": "2.06 ± 0.35"}, {"measurement": "cell cycle phase distribution versus control or TGF-β alone", "setting": "[7]; IC10, absence or presence of TGF-β 30 ng/mL, 24, 48 and 72 h", "value": "no significant differences"}]}
